Test results as given in ChEMBL document CHEMBL4342495, “Structure-Activity Relationship and Anticancer Profile of Second-Generation Anti-MRSA Synthetic Retinoids” (ACS Med Chem Lett, 2020).
Converted amounts (≈) assume the structure as drawn.

Experiments:
Staphylococcus aureus [1] = experiment: Antibacterial activity against methicillin-resistant Staphylococcus aureus MW2 BAA 1707 assessed as growth inhibition by standard microdilution method; assay type: functional
HepG2 = experiment: Cytotoxicity against human HepG2 cells assessed as reduction in cell viability measured after 24 hrs by WST1 assay; assay type: functional; conditions: HepG2, 24 h, read-out: LC50 (the source's name)
[2] = Hemolytic activity against human erythrocytes measured after 1 hr; assay type: ADME, cell-based, Erythrocyte
Staphylococcus aureus [3] = experiment: Antibacterial activity against vancomycin-resistant Staphylococcus aureus VRS1 assessed as growth inhibition by standard microdilution method; assay type: functional
Staphylococcus aureus [4] = experiment: Antibacterial activity against methicillin-resistant Staphylococcus aureus JE2 assessed as growth inhibition by standard microdilution method; assay type: functional
Staphylococcus aureus [5] = experiment: Antibacterial activity against methicillin-resistant Staphylococcus aureus ATCC 33591 assessed as growth inhibition by standard microdilution method; assay type: functional
HeLa = experiment: Cytotoxicity against human HeLa cells assessed as reduction in cell viability measured after 24 hrs by WST1 assay; assay type: functional; conditions: read-out: LC50 (the source's name)
Staphylococcus aureus [6] = experiment: Antibiofilm activity against methicillin-resistant Staphylococcus aureus MW2 assessed as reduction in number of viable cells by measuring colony forming units at 16 fold MIC relative to control; assay type: functional
Staphylococcus aureus [7] = experiment: Antibacterial activity against methicillin-resistant Staphylococcus aureus MW2 assessed as growth inhibition; assay type: functional

Compound | MIC (Staphylococcus aureus [1]) [µg/mL] | CC50 (HepG2) | HC50 at 1 h [2] [µg/mL] | MIC (Staphylococcus aureus [3]) [µg/mL] | MIC (Staphylococcus aureus [4]) [µg/mL] | MIC (Staphylococcus aureus [5]) [µg/mL] | CC50 (HeLa) [µg/mL] | inhibition (INH) (Staphylococcus aureus [6]) [%] | MIC (Staphylococcus aureus [7]) [µg/mL]
CCCC=Cc1cc(-c2ccc3cc(C(=O)O)ccc3c2)ccc1O | 16 | 5.38 µg/mL | > 64 |  |  |  |  |  | 
CCCCCCCCCc1cc(-c2ccc3cc(CO)ccc3c2)ccc1O | > 64 | 7.25 µg/mL | > 64 |  |  |  |  |  | 
CN[C@H](CC(C)C)C(=O)N[C@H]1C(=O)N[C@@H](CC(N)=O)C(=O)N[C@H]2C(=O)N[C@H]3C(=O)N[C@H](C(=O)N[C@H](C(=O)O)c4cc(O)cc(O)c4-c4cc3ccc4O)[C@H](O)c3ccc(c(Cl)c3)Oc3cc2cc(c3O[C@@H]2O[C@H](CO)[C@@H](O)[C@H](O)[C@H]2O[C@H]2C[C@](C)(N)[C@H](O)[C@H](C)O2)Oc2ccc(cc2Cl)[C@H]1O [VANCOMYCIN] |  |  |  | > 64 |  |  |  |  | 
Cc1cc(-c2ccc3cc(C(=O)O)ccc3c2)ccc1O | > 64 | > 32 µg/mL | > 64 |  |  |  |  |  | 
CC(C)(C)c1cc(-c2ccc3cc(CO)ccc3c2)ccc1O | 8 | 7.5 µg/mL | > 64 |  |  |  |  |  | 
O=C(O)c1ccc2cc(-c3ccc(O)c(C45CC6CC(CC(C6)C4)C5)c3)ccc2c1 [O-DEMETHYLATED ADAPALENE] | 1 | 1.02 µg/mL | > 64 | 1 | 1 | 1 | 0.21 (≈ 0.527 µM) | 90 | 2 (≈ 5.02 µM)
CCCC=Cc1cc(-c2ccc3cc(CO)ccc3c2)ccc1O | 4 | 3.89 µg/mL | > 64 |  |  |  |  |  | 
CCCCCCCc1cc(-c2ccc3cc(C(=O)O)ccc3c2)ccc1O | 4 | 1.89 µg/mL | > 64 |  |  |  | 0.6 (≈ 1.66 µM) |  | 
CCCCCc1cc(-c2ccc3cc(C(=O)O)ccc3c2)ccc1O | 8 | 3.26 µg/mL | > 64 |  |  |  |  |  | 
CCCCCCCCCc1cc(-c2ccc3cc(C(=O)O)ccc3c2)ccc1O | 4 | 1.73 µg/mL | 22.8 |  |  |  |  |  | 
O=C(O)c1ccc2cc(-c3ccc(O)cc3)ccc2c1 | > 64 | > 32 µg/mL | > 64 |  |  |  |  |  | 
CCCCCCCC=Cc1cc(-c2ccc3cc(CO)ccc3c2)ccc1O | > 64 | 5.51 µg/mL | > 64 |  |  |  |  |  | 
CC12CC3CC(C)(C1)CC(c1cc(-c4ccc5cc(C(=O)O)ccc5c4)ccc1O)(C3)C2 | 2 | 1.84 µg/mL | 15.2 | 2 | 2 | 2 | 0.49 (≈ 1.15 µM) |  | 
CCCCCC=Cc1cc(-c2ccc3cc(CO)ccc3c2)ccc1O | 4 | 4.19 µg/mL | > 64 |  |  |  |  |  | 
CCCCCc1cc(-c2ccc3cc(CO)ccc3c2)ccc1O | 4 | 3.27 µg/mL | > 64 |  |  |  |  |  | 
CC(C)(C)c1cc(-c2ccc3cc(C(=O)O)ccc3c2)ccc1O | 16 | 9.8 µg/mL | > 64 |  |  |  |  |  | 
OCc1ccc2cc(-c3ccc(O)cc3)ccc2c1 | > 64 | 1700 nM | > 64 |  |  |  |  |  | 
CC12CC3CC(C)(C1)CC(c1cc(-c4ccc5cc(CO)ccc5c4)ccc1O)(C3)C2 | 8 | 11.7 µg/mL | > 64 |  |  |  |  |  | 
CCCCCCCc1cc(-c2ccc3cc(CO)ccc3c2)ccc1O | 4 | 3.61 µg/mL | > 64 |  |  |  |  |  | 
CCCCCCCC=Cc1cc(-c2ccc3cc(C(=O)O)ccc3c2)ccc1O | 4 | 2.6 µg/mL | 51.5 |  |  |  |  |  | 
CCCCCC=Cc1cc(-c2ccc3cc(C(=O)O)ccc3c2)ccc1O | 8 | 2.44 µg/mL | 45.4 |  |  |  |  |  | 
Cc1cc(-c2ccc3cc(CO)ccc3c2)ccc1O | > 64 | > 32 µg/mL | > 64 |  |  |  |  |  | 
